Experimental findings from patent publication US20170037091A1, “STY PEPTIDES FOR INHIBITION OF ANGIOGENESIS” (RESEARCH DEVELOPMENT FOUNDATION, priority 2014, published 2017) are described below.

The subject of assay [1] is Human ocular melanoma cells (Mel 270). Briefly: XTT cell proliferation assay, Mel 270 ocular melanoma cells. Particulars: 30 mg/100 mL, XTT at 72 h. The class given is cell-based. On the procedure:
(§1) A 26 amino acid sequence corresponding to a Ser-Thr-Tyr domain within RTEF-1 (FIG. 1), linked to a 10 amino acid cell importation signal (RMR) was synthesized (GenScript NJ). Human ocular melanoma cells (Mel 270, Mel 202), retinoblastoma cells (Y79; ATTC, MD), primate ocular endothelial retina/choroid ocular endothelial cells (RF/6A; ATCC, MD), human retinal pigment epithelial cells (ARPE19; ATCC, MD), and the CRL 1500 breast cancer cell line (ATCC, MD) were plated into 96 well plates and cultured for 24 h. Recombinant STY-RMR peptide was added to the cell culture media at various concentrations (10 to 30 mg/100 mL).
(§2) Cell proliferation was assessed at 72 h using a colorimetric XTT assay (Roche Diagnostics, Indianpolis, Conn., USA). Cell proliferation was expressed as a percentage and compared with untreated control cell growth (N=3).

Assay [2] deals with secreted VEGF, breast cancer cells (CRL 1500). The assay is described as follows: VEGF ELISA of culture media, CRL 1500 breast cancer cells. The settings on record: 0.1 μg/100 μL, three days. It counts as cell-based, human. The method, then: (§3) A 26 amino acid sequence corresponding to a Ser-Thr-Tyr domain within RTEF-1 (FIG. 1), linked to a 10 amino acid cell importation signal (RMR) was synthesized (GenScript NJ). Human ocular melanoma cells (Mel 270, Mel 202), retinoblastoma cells (Y79; ATTC, MD), primate ocular endothelial retina/choroid ocular endothelial cells (RF/6A; ATCC, MD), human retinal pigment epithelial cells (ARPE19; ATCC, MD), and the CRL 1500 breast cancer cell line (ATCC, MD) were plated into 96 well plates and cultured for 24 h. […]
(§4) The amount of VEGF within the media was determined by VEGF ELISA (R&D Systems, MN, USA) and compared between STY-RMR treated and controls (N=3).
A general note: An ELISA detects its analyte on a solid surface through an enzyme-linked reagent.

Assay [3] concerns CRL 1500 breast cancer cell line. The assay is described as follows: XTT cell proliferation assay, CRL 1500 breast cancer cells. The class given is cell-based, human. The method, then: as §3, §2
The subject of assay [4] is secreted VEGF in the media of all tested cell lines. The assay is described as follows: VEGF ELISA of culture media, all tested cell lines (summary statement). Particulars: all tested cell lines exposed to STY-RMR. It counts as cell-based. On the procedure: as §1, §4
Assay [5] relates to secreted VEGF, ocular melanoma cell line 270. The assay is described as follows: VEGF ELISA of culture media, Mel 270 cells. Particulars: 30 mg/100 mL, three days. The class given is cell-based, human. The method, then:
as §1, §4

The subject of assay [6] is secreted VEGF, ocular retinal-choroidal derived vascular endothelial cells (RF/6A). Briefly: VEGF ELISA of culture media, RF/6A cells. The class given is cell-based, primate. Particulars: 30 mg/100 mL, three days. The method, then:
as §1, §4

Assay [7] has as its system primate ocular endothelial retina/choroid ocular endothelial cells (RF/6A). Briefly: XTT cell proliferation assay, RF/6A ocular endothelial cells. The settings on record: 30 mg/100 mL, XTT at 72 h. It counts as cell-based. On the procedure:
as §1, §2

Assay [8] has as its system secreted VEGF, ARPE19 cells. The assay is described as follows: VEGF ELISA of culture media, ARPE19 cells. The settings on record: 30 mg/100 mL, three days. It counts as cell-based, human. On the procedure:
as §1, §4

Assay [9] relates to human retinal pigment epithelial cells (ARPE19). Briefly: XTT cell proliferation assay, ARPE-19 cells. The class given is cell-based. The settings on record: 30 mg/100 mL, XTT at 72 h. On the procedure:
as §1, §2
In general terms: Formazan colour is commonly taken as a measure of viable cells.

The subject of assay [10] is Human ocular melanoma cells (Mel 202). The assay is described as follows: XTT cell proliferation assay, Mel 202 ocular melanoma cells. The settings on record: 30 mg/100 mL, XTT at 72 h, N=3. The class given is cell-based. The method, then: as §1, §2

Take “STY-RMR: 26 amino acid STY domain of RTEF-1 linked to 10 amino acid RMR cell importation signal; 36 amino acids (SEQ ID NO:2) (SSFYGVSSQYESPENMIITCSTKVCSRMRRMRRMRR)”: in assay [1], the “inhibition of Mel270 ocular melanoma cell proliferation below control” value was determined as 60%. Moreover, the “decrease of VEGF levels in breast tumor cells (ELISA)” value in assay [2] stood at 78%. Also, the “inhibition of breast cancer cell (CRL 1500) proliferation” value in assay [3] (0.1 μg/100 μL twice a day for three days) was 9%; in assay [3] (0.2 μg/100 μL twice a day for three days), 27%; in assay [3] (0.5 μg/100 μL twice a day for three days), 27%; in assay [3] (1 μg/100 μL twice a day for three days) it was 27%; in assay [3] (5 μg/100 μL twice a day for three days), 50%; in assay [3] (6 μg/100 μL twice a day for three days), 50%. Moreover, the “secreted VEGF in the media, result in words” value in assay [4] was “decreased”. Further, the “reduction in secreted VEGF levels, ocular melanoma cell line 270 (ELISA)” value in assay [5] amounted to 81%. In addition, the “reduction of secreted VEGF, RF/6A ocular vascular endothelial cells (ELISA)” value in assay [6] is recorded as 80%. Moreover, in assay [7], the “inhibition of RF/6A ocular endothelial cell proliferation” value was determined as 42%. Moreover, the “reduction of VEGF levels compared to control, ARPE19 cells (ELISA)” value in [8] is 88%. In assay [9], the “inhibition of ARPE-19 retinal pigment epithelial cell proliferation” value was 75%. The “inhibition of Mel 202 ocular melanoma cell proliferation” value in [10] came to 87%.
